What was measured:
H1a-luc or Zluc cells = assay: in vitro; type: cell-based, human; details: Table 1B, cellular viability
Description: (§1) For cytotoxicity evaluation, HPC cells were treated with compounds as described above in the absence of the genotype 2a virus and cellular viability was monitored using the Cell Titer 96 AQueous One Solution Cell Proliferation Assay (Promega). Plates were then read at 490 nm in a Victor^3V 1420 multilabel counter (Perkin Elmer) and CC50 concentrations were determined using Microsoft Excel and XLfit 4.1 software.
as §1, with “H1a-luc or Zluc” for “HPC”, “above” for “above in the absence of the genotype 2a virus”

[1] = system: HCV genotype 3a NS5A within the 1b-replicon; assay: Luciferase replicon assay, NS5A-intergenotypic stable cell line genotype 3a; type: cell-based; details: Hepatitis C virus, read-out: EC50 3a
Source text: (§2) The nucleotide sequences of the NS5A region of genotype 2a (GenBank Accession # AB047639), genotype 3a (GenBank Accession #D17763), and genotype 4a (GenBank Accession# DQ418788) were synthesized by an outside vendor. The NS5A region of each of these genotypes included the first 11 amino acids of the protease recognition sequence of genotype 1b, as well as the last 10 amino acids of genotype 1b. The NS5A gene cassettes were excised with site specific restriction endonucleases and ligated into a ZS11-luciferase genotype 1b backbone (backbone contains the genotype 1b NS3 protease, NS4a, NS4b, and NS5b coding regions) with similarly cut restriction enzyme sites. Thus, the newly constructed plasmid contains a genotype 2a-, 3a- or 4a-specific NS5A gene within the 1b-replicon.
(§3) These new intergenotypic plasmids were used to establish stable cell lines. RNA was generated from the NS5A intergenotypic plasmids and used in conjunction with a lipofectin reagent to transfect a cured Huh7 cell line. Transfected cells were selected for with G418. After selection has occurred the stable cell lines were propagated, tested for luciferase activity, and RT-PCR with genotype specific primers (either 1a, 2a, 3a, or 4a). Stable cell lines containing the intergenotypic replicon were then fully sequenced and analyzed for proper expression of NS3, NS5A and NS5B proteins.
(§4) Drug titration analysis was performed using the luciferase replicon assay described herein.
(§5) The HCV luciferase replicon assay measures the ability of a test compound to inhibit HCV replication in cell culture after 3 days of treatment in a human hepatoma cell line (Huh-7) bearing an HCV replicon containing a luciferase-neomycin phosphotransferase fusion gene. The inhibition of HCV replication was measured by quantification of luciferase protein expression. Briefly, Huh-7 cells containing either the HCV genotype 1a H77 strain or genotype 1b Con1 strain subgenomic luciferase replicon (H1a-luc or Zluc, respectively) were grown in DMEM containing glucose, L-glutamine and sodium pyruvate, 10% fetal bovine serum (FBS), 100 IU/mL penicillin, 100 μg/mL streptomycin, 2 mM GlutaMAX, non-essential amino acids and 0.25 (H1a-luc) or 0.5 (Zluc) mg/mL G418. GlutaMAX was obtained from Invitrogen, Corp.; all other media reagents were obtained from Mediatech, Inc. For dose-response testing, the cells were seeded in 96-well plates at 1×10^4 (H1a-luc) or 7.5×10^3 (Zluc) cells/well in a volume of 50 μL, and incubated at 37° C./5% CO2. Three hours after plating, 50 μL of ten 5-fold serial dilutions of compound were added, and cell cultures were incubated at 37° C./5% CO2 for 72 hours. In all cases, Huh-7 cells lacking the HCV replicon served as negative control. To assess luciferase expression, the media/compound was removed from the plates and ONE-glo Luciferase assay reagent (Promega) was added to each well. The assay plates were shaken for 3 minutes at room temperature and luciferase activity for each well was measured with a 1 sec read time on the Victor^3V multilabel counter using a 700 nm cut-off filter (Perkin Elmer). EC50 values were calculated from dose response curves from the resulting best-fit equations determined by Microsoft Excel and XLfit 4.1 software.

[2] = system: HCV genotype 1a H77 strain subgenomic luciferase replicon (H1a-luc); assay: Luciferase replicon assay, genotype 1a; type: cell-based; details: Hepatitis C virus, read-out: EC50 1a
Description: as §4, §5

HCV genotype 2a = assay: Genotype 2a assay (NS5A-intergenotypic luciferase replicon / genotype 2a infectious virus assay); type: cell-based; details: Hepatitis C virus, read-out: EC50 2a
Source text: as §2, §3, §4
The genotype 2a infectious virus assay measures the ability of a test compound to inhibit HCV replication in cell culture after 5 days of treatment at the time of HCV genotype 2a virus infection of a permissive human hepatoma cell line (HPC cells). The inhibition of HCV replication was measured by quantification of HCV core protein expression by an enzyme-linked immunosorbent assay (ELISA). Briefly, HPC cells were grown in DMEM containing glucose, L-glutamine and sodium pyruvate, 10% FBS, 100 IU/mL penicillin, 100 μg/mL streptomycin, 2 mM GlutaMAX, and non-essential amino acids. GlutaMAX was obtained from Invitrogen, Corp.; all other media reagents were obtained from Mediatech, Inc. For dose-response testing, ninety-six-well plates were seeded with HPC cells at a density of 2.5×10^3 cells/well in a volume of 50 μL, and incubated at 37° C./5% CO2. Three hours after plating, 50 μL of ten 5-fold serial dilutions of compound and 100 μL of genotype 2a virus were added, and cell cultures were incubated at 37° C./5% CO2. In all cases, mock infected HPC cells served as negative control. At 16 hours post treatment and infection, the virus inoculum was removed by aspiration. The cultures were treated at the same final concentrations of drug diluted in media and incubated for 4 additional days at 37° C./5% CO2. Subsequently, the core ELISA was performed as follows. The plates were fixed for 90 seconds with acetone/methanol (1:1, v/v), washed three times with KPL wash solution (KPL, Inc.), blocked for 1 hr at room temperature with TNE buffer containing 10% FBS and then incubated for 2 hr at 37° C. with the anti-HCV core mouse monoclonal antibody (Thermo Scientific) diluted in the same buffer. After washing three times with KPL wash solution, the cells were incubated for 1 hr at 37° C. with an anti-mouse immunoglobulin G-peroxidase conjugate in TNE/10% FBS. After washing as described above, the reaction was developed with O-phenylenediamine (Invitrogen). The reaction was stopped after 30 min with 2 NH2SO4, and absorbance was read at 490 nm in a Victor^3V 1420 multilabel counter (Perkin Elmer) and EC50 concentrations were determined using Microsoft Excel and XLfit 4.1 software.
The HCV luciferase replicon assay measures the ability of a test compound to inhibit HCV replication in cell culture after 3 days of treatment in a human hepatoma cell line (Huh-7) bearing an HCV replicon containing a luciferase-neomycin phosphotransferase fusion gene. […]

[3] = system: HCV genotype 4a NS5A within the 1b-replicon; assay: Luciferase replicon assay, NS5A-intergenotypic stable cell line genotype 4a; type: cell-based; details: Hepatitis C virus, read-out: EC50 4a
Source text: as §2, §3, §4, §5

[4] = system: HCV genotype 1b Con1 strain subgenomic luciferase replicon (Zluc); assay: Luciferase replicon assay, genotype 1b; type: cell-based; details: Hepatitis C virus
Description: as §5

[5] = system: HCV Con1 subgenomic replicon (GS4.1 cells); assay: HCV replicon assay (NS5A ELISA, 72 hrs); type: cell-based; details: Hepatitis C virus
Description: Huh-7 cells containing HCV Con1 subgenomic replicon (GS4.1 cells) were grown in Dulbecco's Modified Eagle Medium (DMEM) supplemented with 10% fetal bovine serum (FBS), 2 mM L-glutamine, 110 mg/L sodium pyruvate, 1× non-essential amino acids, 100 U/mL penicillin-streptomycin, and 0.5 mg/mL G418 (Invitrogen). For dose-response testing, the cells were seeded in 96-well plates at 7.5×10^3 cells/well in a volume of 50 μL, and incubated at 37° C./5% CO2. Three hours after plating, 50 μL often 2-fold serial dilutions of compounds (highest concentration, 75 μM) were added, and cell cultures were incubated at 37° C./5% CO2 in the presence of 0.5% DMSO. Alternatively, compounds were tested at a single concentration of 15 μM. In all cases, Huh-7 cells lacking the HCV replicon served as negative control. The cells were incubated in the presence of compounds for 72 hrs after which they were monitored for expression of the NS5A protein by enzyme-linked immunosorbent assay (ELISA). For this, the plates were then fixed for 1 min with acetone/methanol (1:1, v/v), washed twice with phosphate-buffered saline (PBS), 0.1% Tween 20, blocked for 1 hr at room temperature with TNE buffer containing 10% FBS and then incubated for 2 hr at 37° C. with the anti-NS5A mouse monoclonal antibody A-236 (ViroGen) diluted in the same buffer. After washing three times with PBS, 0.1% Tween 20, the cells were incubated 1 hr at 37° C. with anti-mouse immunoglobulin G-peroxidase conjugate in TNE, 10% FBS. After washing as described above, the reaction was developed with O-phenylenediamine (Zymed). The reaction was stopped after 30 min with 2 NH2SO4, and absorbance was read at 492 nm using Sunrise Tecan spectrophotometer. EC50 values were determined from the % inhibition versus concentration data using a sigmoidal non-linear regression analysis based on four parameters with Tecan Magellan software.

in vitro = type: cell-based; details: human; GS4.1 cells, cellular viability
Description: For cytotoxicity evaluation, GS4.1 cells were treated with compounds as described above and cellular viability was monitored using the Cell Titer 96 AQeous One Solution Cell Proliferation Assay (Promega). CC50 values were determined from the % cytotoxicity versus concentration data with Tecan Magellan software as described above.

## COC(=O)N[C@H](C(=O)N1CCCC1c1nc(-c2cc3sc(-c4cnc([C@@H]5CCCN5C(=O)[C@@H](NC(=O)OC)C(C)C)[nH]4)cc3s2)c[nH]1)C(C)C (stereo partly shown) [Compound A101]
H1a-luc or Zluc cells
  CC50: > 75000 nM
[1]
  EC50: 1 to 10 nM
[2]
  EC50: 10 to 100 nM
HCV genotype 2a
  EC50: 1 to 10 nM
[3]
  EC50: 1 to 10 nM
[4]
  EC50: < 0.1 nM

## COC(=O)N[C@H](C(=O)N1CCC[C@H]1c1ncc(-c2ccc(-c3cc4sc(-c5cnc([C@@H]6CCCN6C(=O)[C@@H](NC(=O)OC)C(C)C)[nH]5)cc4s3)cc2)[nH]1)C(C)C [Compound A126, [(S)-1-((S)-2-{5-[4-(5-{2-[(S)-1-((S)-2-Methoxycarbonylamino-3-methyl-butyryl)-pyrrolidin-2-yl]-3H-imidazol-4-yl}-thieno[3,2-b]thiophen-2-yl)-phenyl]-1H-imidazol-2-yl}-pyrrolidine-1-carbonyl)-2-methyl-propyl]-carbamic acid methyl ester]
H1a-luc or Zluc cells
  CC50: > 75000 nM
[5]
  EC50: < 1 nM
[1]
  EC50: 1 to 10 nM
[2]
  EC50: < 0.1 nM
In vitro
  CC50: > 75000 nM
[4]
  EC50: < 0.1 nM

## COC(=O)N[C@H](C(=O)N1CCC[C@H]1c1ncc(-c2ccc(-c3csc4c(-c5ccc6[nH]c([C@@H]7CCCN7C(=O)[C@@H](NC(=O)OC)C(C)C)nc6c5)csc34)cc2)[nH]1)C(C)C [Compound A171, [(S)-1-((S)-2-{4-[4-(6-{2-[(S)-1-((S)-2-methoxycarbonylamino-3-methyl-butyryl)-pyrrolidin-2-yl]-3H-benzoimidazol-5-yl}-thieno[3,2-b]thiophen-3-yl)-phenyl]-1H-imidazol-2-yl}-pyrrolidine-1-carbonyl)-2-methyl-propyl]-carbamic acid methyl ester]
H1a-luc or Zluc cells
  CC50: > 75000 nM
[1]
  EC50: 1 to 10 nM
[2]
  EC50: < 0.1 nM
[4]
  EC50: < 0.1 nM

## COC(=O)N[C@H](C(=O)N1CCC[C@H]1c1ncc(-c2csc3c(-c4ccc5[nH]c([C@@H]6CCCN6C(=O)[C@@H](NC(=O)OC)C(C)C)nc5c4)csc23)[nH]1)C(C)C [Compound A173, ((S)-1-{(S)-2-[6-(6-{(S)-2-[1-((S)-2-methoxycarbonylamino-3-methyl-butyryl)-pyrrolidin-2-yl]-1H-imidazol-4-yl}-thieno[3,2-b]thiophen-3-yl)-1H-benzoimidazol-2-yl]-pyrrolidine-1-carbonyl}-2-methyl-propyl)-carbamic acid methyl ester]
H1a-luc or Zluc cells
  CC50: 10000 to 75000 nM
[1]
  EC50: 1 to 10 nM
[2]
  EC50: 10 to 100 nM
HCV genotype 2a
  EC50: 1 to 10 nM
[3]
  EC50: 1 to 10 nM
[4]
  EC50: < 0.1 nM

Source: patent publication US20120252721A1 (priority 2011, published 2012)
